Source: patent US20250255834A1, “ANXIOLYTIC COMPOSITION, FORMULATION AND METHOD OF USE” (priority 2012, published 2025)

System: anxiety
Assay: Intranasal ketamine spray given to individual adult subjects for anxiety before a procedure or flight (case reports)

In the case of `CNC1(c2ccccc2Cl)CCCCC1=O` (stereo not drawn) [ketamine], the “duration of relief from anxiety and calming effect” value (Example I: healthy person, intranasal, about 0.2-0.3 mg/kg) is reported as 15 to 30 min, the “development of anxiety during the dental procedure” value (Example II: person with severe dental phobia, dental extraction under local anesthetic, intranasal unit dose before travel, additional dosage in the waiting room) is reported as “without the development of anxiety” and the “duration of relief from anxiety and calming effect” value (Example II: person with severe dental phobia, intranasal unit dose as in Example I) is reported as 15 to 30 min.
